How the values were obtained:
Experiment in all cases: kinase binding screen (kinase-tagged T7 phage, qPCR), % Ctrl
CAMKK2 = CAMKK2 (Homo sapiens, UniProt Q96RR4)
Method in brief: (§1)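 Kinase-tagged T7 phage lysates were prepared in E. coli (MOI 0.4, 32° C until lysis), then exposed to ligand-bearing beads and test compound at a fixed concentration. Kinase remaining bound was eluted and measured by qPCR.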

CDKL5 = molecular target: T1, CDKL5 (Homo sapiens, UniProt O76039)
T1 sequence (O76039 1-960): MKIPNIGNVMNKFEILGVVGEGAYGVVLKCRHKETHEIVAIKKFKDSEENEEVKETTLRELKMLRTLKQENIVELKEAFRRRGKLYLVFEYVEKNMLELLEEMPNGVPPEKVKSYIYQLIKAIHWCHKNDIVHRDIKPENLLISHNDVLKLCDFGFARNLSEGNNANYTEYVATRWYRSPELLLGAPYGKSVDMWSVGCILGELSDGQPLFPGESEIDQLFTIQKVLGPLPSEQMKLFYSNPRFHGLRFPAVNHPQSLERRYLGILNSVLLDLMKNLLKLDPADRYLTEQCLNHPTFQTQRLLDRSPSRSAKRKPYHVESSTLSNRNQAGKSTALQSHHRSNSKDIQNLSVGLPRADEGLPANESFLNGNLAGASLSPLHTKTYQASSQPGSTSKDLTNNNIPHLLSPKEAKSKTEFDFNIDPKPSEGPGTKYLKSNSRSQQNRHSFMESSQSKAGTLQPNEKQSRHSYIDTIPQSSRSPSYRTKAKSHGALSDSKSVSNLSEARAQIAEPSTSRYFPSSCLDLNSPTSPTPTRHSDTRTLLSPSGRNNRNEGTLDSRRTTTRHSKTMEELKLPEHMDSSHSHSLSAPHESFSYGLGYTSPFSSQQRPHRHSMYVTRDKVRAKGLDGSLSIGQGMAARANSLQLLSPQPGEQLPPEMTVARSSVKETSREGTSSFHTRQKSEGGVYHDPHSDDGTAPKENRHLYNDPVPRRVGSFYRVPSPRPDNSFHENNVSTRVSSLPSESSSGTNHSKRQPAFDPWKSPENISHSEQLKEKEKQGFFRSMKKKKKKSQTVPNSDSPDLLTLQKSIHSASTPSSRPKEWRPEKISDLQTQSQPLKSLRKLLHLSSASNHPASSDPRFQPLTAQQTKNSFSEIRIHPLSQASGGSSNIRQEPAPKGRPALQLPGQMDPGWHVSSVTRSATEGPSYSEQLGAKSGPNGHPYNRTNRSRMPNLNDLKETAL
Method in brief: as §1

DYRK2 = molecular target: T2, DYRK2 (Homo sapiens, UniProt Q92630)
T2 sequence (Q92630 1-601): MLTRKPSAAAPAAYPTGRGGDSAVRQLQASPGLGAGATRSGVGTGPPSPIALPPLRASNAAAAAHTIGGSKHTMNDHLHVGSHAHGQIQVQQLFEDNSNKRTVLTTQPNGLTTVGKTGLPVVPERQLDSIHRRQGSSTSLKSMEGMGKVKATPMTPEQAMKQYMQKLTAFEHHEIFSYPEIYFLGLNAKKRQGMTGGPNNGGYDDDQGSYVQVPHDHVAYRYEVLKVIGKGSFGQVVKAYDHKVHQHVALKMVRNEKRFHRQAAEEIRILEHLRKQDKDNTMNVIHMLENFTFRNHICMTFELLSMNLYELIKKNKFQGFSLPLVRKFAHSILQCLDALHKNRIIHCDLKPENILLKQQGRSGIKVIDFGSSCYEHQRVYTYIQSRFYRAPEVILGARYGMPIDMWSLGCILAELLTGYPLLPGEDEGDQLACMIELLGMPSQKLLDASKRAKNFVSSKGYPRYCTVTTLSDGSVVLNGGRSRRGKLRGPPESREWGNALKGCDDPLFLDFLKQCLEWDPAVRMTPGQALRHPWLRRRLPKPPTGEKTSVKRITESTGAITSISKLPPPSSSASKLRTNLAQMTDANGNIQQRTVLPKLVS
Method in brief: as §1

IRAK1 = IRAK1 (Homo sapiens, UniProt P51617)
Method in brief: as §1

SgK085 = molecular target: T3, SgK085 (Homo sapiens, UniProt Q86YV6)
T3 sequence (Q86YV6 1-388): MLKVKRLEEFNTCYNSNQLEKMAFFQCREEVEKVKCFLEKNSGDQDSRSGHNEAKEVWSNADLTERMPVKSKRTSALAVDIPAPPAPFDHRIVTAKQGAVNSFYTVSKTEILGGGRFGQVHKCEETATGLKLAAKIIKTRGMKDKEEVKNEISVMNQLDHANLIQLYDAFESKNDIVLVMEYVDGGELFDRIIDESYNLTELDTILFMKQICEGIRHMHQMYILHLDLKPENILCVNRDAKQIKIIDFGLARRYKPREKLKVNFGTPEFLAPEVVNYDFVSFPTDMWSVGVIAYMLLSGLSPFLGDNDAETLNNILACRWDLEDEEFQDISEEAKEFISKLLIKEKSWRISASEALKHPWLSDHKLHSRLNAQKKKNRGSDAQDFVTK
Method in brief: as §1

[1] = molecular target: TYK2(JH2domain-pseudokinase) (Homo sapiens, UniProt P29597)
Method in brief: as §1

Sequence of CAMKK2 (Q96RR4 whole entry): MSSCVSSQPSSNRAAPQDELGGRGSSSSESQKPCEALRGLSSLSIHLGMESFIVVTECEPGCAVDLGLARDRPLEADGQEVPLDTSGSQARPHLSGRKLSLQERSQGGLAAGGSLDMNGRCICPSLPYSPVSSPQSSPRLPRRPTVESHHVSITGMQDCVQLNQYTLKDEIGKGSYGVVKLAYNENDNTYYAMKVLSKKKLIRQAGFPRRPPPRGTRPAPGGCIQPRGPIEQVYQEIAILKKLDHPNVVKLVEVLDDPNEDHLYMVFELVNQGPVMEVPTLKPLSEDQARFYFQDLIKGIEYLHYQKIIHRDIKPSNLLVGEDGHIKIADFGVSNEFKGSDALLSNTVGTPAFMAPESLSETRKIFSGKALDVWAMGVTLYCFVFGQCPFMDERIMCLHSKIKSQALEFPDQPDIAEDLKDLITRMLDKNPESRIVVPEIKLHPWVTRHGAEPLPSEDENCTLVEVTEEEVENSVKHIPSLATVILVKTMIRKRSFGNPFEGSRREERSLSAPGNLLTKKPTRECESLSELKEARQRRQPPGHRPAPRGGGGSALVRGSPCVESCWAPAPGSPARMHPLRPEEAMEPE
Sequence of TYK2(JH2domain-pseudokinase) (P29597 589-875 limits assumed, species assumed): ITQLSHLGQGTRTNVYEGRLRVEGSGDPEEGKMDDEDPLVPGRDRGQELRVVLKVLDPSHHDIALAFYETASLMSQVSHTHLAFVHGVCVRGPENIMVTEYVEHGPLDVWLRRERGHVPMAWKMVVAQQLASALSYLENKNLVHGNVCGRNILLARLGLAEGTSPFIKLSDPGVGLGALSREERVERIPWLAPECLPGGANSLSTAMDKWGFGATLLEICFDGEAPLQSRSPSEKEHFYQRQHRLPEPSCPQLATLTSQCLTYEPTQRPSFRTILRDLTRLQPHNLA
Sequence of IRAK1 (P51617 whole entry, species assumed): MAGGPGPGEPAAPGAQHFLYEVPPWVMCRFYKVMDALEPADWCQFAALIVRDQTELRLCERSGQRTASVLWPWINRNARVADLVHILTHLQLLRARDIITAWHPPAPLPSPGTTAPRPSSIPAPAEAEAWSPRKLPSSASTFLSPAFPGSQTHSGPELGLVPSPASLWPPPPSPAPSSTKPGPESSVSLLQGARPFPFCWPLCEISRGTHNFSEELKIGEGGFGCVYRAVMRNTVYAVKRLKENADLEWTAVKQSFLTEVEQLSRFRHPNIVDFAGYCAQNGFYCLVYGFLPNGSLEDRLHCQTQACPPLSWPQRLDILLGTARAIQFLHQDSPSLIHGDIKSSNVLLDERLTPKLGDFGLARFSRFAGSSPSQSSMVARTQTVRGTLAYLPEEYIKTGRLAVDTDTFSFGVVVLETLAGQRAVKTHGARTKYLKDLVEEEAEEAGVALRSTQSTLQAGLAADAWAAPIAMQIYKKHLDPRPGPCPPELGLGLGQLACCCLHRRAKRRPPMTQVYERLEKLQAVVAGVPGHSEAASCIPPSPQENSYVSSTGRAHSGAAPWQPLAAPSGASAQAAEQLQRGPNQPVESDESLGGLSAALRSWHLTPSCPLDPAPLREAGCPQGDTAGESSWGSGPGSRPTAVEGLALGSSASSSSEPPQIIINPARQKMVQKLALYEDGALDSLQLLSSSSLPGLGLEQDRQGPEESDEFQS

Compound `Nc1nc2c(-c3cc(Br)c(Br)[nH]3)nccc2[nH]1` [Ageladine A, ageladine A, reference compound] has a remaining activity at 1 µM (CAMKK2) of 90%, a remaining activity at 10 µM (CAMKK2; 10 μM) of 83% and a remaining activity at 1 µM (CDKL5) of 54%. For the same compound, the remaining activity at 10 µM (CDKL5; 10 μM) was 40%, the remaining activity at 1 µM (DYRK2) was 35% and the remaining activity at 10 µM (DYRK2; 10 μM) was 4.4%. It also gave a remaining activity at 1 µM (IRAK1) of 55%, a remaining activity at 10 µM (IRAK1; 10 μM) of 35% and a remaining activity at 1 µM (SgK085) of 89%. It also gave a remaining activity at 10 µM (SgK085; 10 μM) of 90%, a remaining activity at 1 µM [1] of 23% and a remaining activity at 10 µM ([1]; 10 μM) of 2%.

With `Nc1nc2c(-c3ccccn3)nccc2[nH]1` [drawing 35, 4-(pyrid-2-yl)-1H-imidazo[4,5-c]pyridin-2-amine] the remaining activity at 1 µM (CAMKK2) was 35%, the remaining activity at 1 µM (CDKL5) was 50% and the remaining activity at 1 µM (DYRK2) was 41%. The remaining activity at 1 µM (IRAK1) was 52%, the remaining activity at 1 µM (SgK085) was 43% and the remaining activity at 1 µM [1] was 41%.

`Nc1nc2c(-c3cnc4ccccc4c3)nccc2[nH]1` [drawing 36, 4-(quinolin-3-yl)-1H-imidazo[4,5-c]pyridin-2-amine] showed a remaining activity at 1 µM (CAMKK2) of 100%, a remaining activity at 1 µM (CDKL5) of 54% and a remaining activity at 1 µM (DYRK2) of 56%. For the same compound, the remaining activity at 1 µM (IRAK1) was 89%, the remaining activity at 1 µM (SgK085) was 92% and the remaining activity at 1 µM [1] was 25%.

Reference: patent US20110152313A1 (MACQUARIE UNIVERSITY, priority 2008, published 2011)
